The supplement of paper PMC9013687

How the values were obtained:
Danio rerio embryo [1] = test: EC50 Yolk sac size_Increase
Method: (§1)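 Zebrafish embryos (UFZ-OBI strain) were exposed from 2 hpf for 48 h (2 dpf) or 96 h (4 dpf) at 28 °C; spontaneous tail coiling was scored at 25 hpf. Morphological features from automated image analysis (FishInspector), heart rate and locomotor response were fitted with drc models. Quantal endpoints were dichotomised at 2.5 SD from controls and fitted with a log-logistic model; heart rate, pigmentation and STC were normalised to the replicate control mean. Betamethasone was tested as betamethasone dipropionate, diflorasone as diflorasone diacetate.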

Danio rerio embryo [2] = test: EC10 Otolith-eye distance_Decrease; higher = less potent; conditions: exposure time: 4 dpf
Method: as §1

Danio rerio embryo [3] = test: EC20 Eye size_Decrease; higher = less potent
Method: as §1

Danio rerio embryo [4] = test: EC20 Head trunk angle_Decrease; higher = less potent; conditions: exposure time: 2 dpf
Method: as §1

Danio rerio embryo [5] = test: EC50 Body length_Decrease
Method: as §1

Danio rerio embryo [6] = test: EC10 Curvature_Increase; higher = less potent
Method: as §1

Danio rerio embryo [7] = test: EC50 Curvature_Increase
Method: as §1

Danio rerio embryo [8] = test: EC10 Pericard size_Increase; higher = less potent
Method: as §1

Danio rerio embryo [9] = test: EC20 Eye-jaw distance_Decrease; higher = less potent; conditions: exposure time: 4 dpf
Method: as §1

Danio rerio embryo [10] = tested on: Danio rerio embryo
Method: as §1

Danio rerio embryo [11] = test: EC50 Eye-jaw distance_Decrease; conditions: exposure time: 4 dpf
Method: as §1

Danio rerio embryo [12] = test: EC20 Curvature_Increase; higher = less potent
Method: as §1

Danio rerio embryo [13] = test: EC10 Bladder size_Decrease; higher = less potent; conditions: exposure time: 4 dpf
Method: as §1

Danio rerio embryo [14] = test: EC20 Otolith-eye distance_Decrease; higher = less potent; conditions: exposure time: 4 dpf
Method: as §1

Danio rerio embryo [15] = test: EC10 Yolk sac size_Increase; higher = less potent
Method: as §1

Danio rerio embryo [16] = conditions: exposure time: 4 dpf
Method: as §1

Danio rerio embryo [17] = test: EC50 Otolith-eye distance_Decrease; conditions: exposure time: 4 dpf
Method: as §1

Danio rerio embryo [18] = test: EC20 Pericard size_Increase; higher = less potent
Method: as §1

Danio rerio embryo [19] = test: EC10 Body length_Decrease; higher = less potent
Method: as §1

Danio rerio embryo [20] = test: EC20 Body length_Decrease; higher = less potent
Method: as §1

Danio rerio embryo [21] = test: EC20 LMR dark; higher = less potent; conditions: exposure time: 4 dpf
Method: as §1

Danio rerio embryo [22] = test: EC50 Pericard size_Increase
Method: as §1

Danio rerio embryo [23] = test: EC10 Eye-jaw distance_Decrease; higher = less potent; conditions: exposure time: 4 dpf
Method: as §1

Danio rerio embryo [24] = test: spontaneous tail coiling frequency (coils/min/embryo); higher = more spontaneous movement; conditions: 25 hpf
Method: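 Spontaneous tail coilings of zebrafish embryos exposed from 2 hpf were recorded at 24-25 hpf in 1-min videos and detected by a KNIME workflow from grey-value variance. Betamethasone was tested as the dipropionate, diflorasone as the diacetate.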

Danio rerio embryo [25] = test: EC20 Yolk sac size_Increase; higher = less potent
Method: as §1

Danio rerio embryo [26] = test: EC10 LMR dark; higher = less potent; conditions: exposure time: 4 dpf
Method: as §1

Danio rerio embryo [27] = test: EC20 Bladder size_Decrease; higher = less potent; conditions: exposure time: 4 dpf
Method: as §1

Danio rerio embryo [28] = test: EC10 Any effect; higher = less potent
Method: as §1

Danio rerio embryo [29] = test: EC50 Bladder size_Decrease; conditions: exposure time: 4 dpf
Method: as §1

Danio rerio embryo [30] = test: EC20 Any effect; higher = less potent
Method: as §1

CCCCC(O)(Cn1cncn1)c1ccc(Cl)cc1Cl (stereo not drawn) [Hexaconazole]
Conditions	EC10 Any effect [µM]	EC10 Body length Decrease [µM]	EC10 Curvature Increase [µM]	EC10 Pericard size Increase [µM]	EC10 Yolk sac size Increase [µM]	EC20 Any effect [µM]	EC20 Body length Decrease [µM]	EC20 Curvature Increase [µM]	EC20 Eye size Decrease [µM]	EC20 Pericard size Increase [µM]	EC20 Yolk sac size Increase [µM]	EC50 Any effect [µM]	EC50 Body length Decrease [µM]	EC50 Curvature Increase [µM]	EC50 Pericard size Increase [µM]	EC50 STC bell shape [µM]	EC50 Yolk sac size Increase [µM]	spontaneous tail coiling frequency
Danio rerio embryo [1], exposure time: 2 dpf	–	–	–	–	–	–	–	–	–	–	–	–	–	–	–	–	51.2	–
Danio rerio embryo [1], exposure time: 4 dpf	–	–	–	–	–	–	–	–	–	–	–	–	–	–	–	–	9.95	–
Danio rerio embryo [3], exposure time: 2 dpf	–	–	–	–	–	–	–	–	48.8	–	–	–	–	–	–	–	–	–
Danio rerio embryo [3], exposure time: 4 dpf	–	–	–	–	–	–	–	–	12.2	–	–	–	–	–	–	–	–	–
Danio rerio embryo [5], exposure time: 2 dpf	–	–	–	–	–	–	–	–	–	–	–	–	33.4	–	–	–	–	–
Danio rerio embryo [5], exposure time: 4 dpf	–	–	–	–	–	–	–	–	–	–	–	–	16.8	–	–	–	–	–
Danio rerio embryo [6], exposure time: 2 dpf	–	–	17.5	–	–	–	–	–	–	–	–	–	–	–	–	–	–	–
Danio rerio embryo [6], exposure time: 4 dpf	–	–	11.8	–	–	–	–	–	–	–	–	–	–	–	–	–	–	–
Danio rerio embryo [7], exposure time: 2 dpf	–	–	–	–	–	–	–	–	–	–	–	–	–	21.2	–	–	–	–
Danio rerio embryo [7], exposure time: 4 dpf	–	–	–	–	–	–	–	–	–	–	–	–	–	17.5	–	–	–	–
Danio rerio embryo [8], exposure time: 2 dpf	–	–	–	12.8	–	–	–	–	–	–	–	–	–	–	–	–	–	–
Danio rerio embryo [8], exposure time: 4 dpf	–	–	–	15.2	–	–	–	–	–	–	–	–	–	–	–	–	–	–
Danio rerio embryo [10], exposure time: 2 dpf	–	–	–	–	–	–	–	–	–	–	–	19.5	–	–	–	–	–	–
Danio rerio embryo [10], exposure time: 4 dpf	–	–	–	–	–	–	–	–	–	–	–	10.8	–	–	–	–	–	–
Danio rerio embryo [10], exposure time: 25 h	–	–	–	–	–	–	–	–	–	–	–	–	–	–	–	23.4	–	–
Danio rerio embryo [12], exposure time: 2 dpf	–	–	–	–	–	–	–	18.8	–	–	–	–	–	–	–	–	–	–
Danio rerio embryo [12], exposure time: 4 dpf	–	–	–	–	–	–	–	13.7	–	–	–	–	–	–	–	–	–	–
Danio rerio embryo [15], exposure time: 2 dpf	–	–	–	–	45	–	–	–	–	–	–	–	–	–	–	–	–	–
Danio rerio embryo [15], exposure time: 4 dpf	–	–	–	–	5.45	–	–	–	–	–	–	–	–	–	–	–	–	–
Danio rerio embryo [18], exposure time: 2 dpf	–	–	–	–	–	–	–	–	–	17.9	–	–	–	–	–	–	–	–
Danio rerio embryo [18], exposure time: 4 dpf	–	–	–	–	–	–	–	–	–	16.9	–	–	–	–	–	–	–	–
Danio rerio embryo [19], exposure time: 2 dpf	–	19.2	–	–	–	–	–	–	–	–	–	–	–	–	–	–	–	–
Danio rerio embryo [19], exposure time: 4 dpf	–	12.2	–	–	–	–	–	–	–	–	–	–	–	–	–	–	–	–
Danio rerio embryo [20], exposure time: 2 dpf	–	–	–	–	–	–	23.5	–	–	–	–	–	–	–	–	–	–	–
Danio rerio embryo [20], exposure time: 4 dpf	–	–	–	–	–	–	13.7	–	–	–	–	–	–	–	–	–	–	–
Danio rerio embryo [22], exposure time: 2 dpf	–	–	–	–	–	–	–	–	–	–	–	–	–	–	31.5	–	–	–
Danio rerio embryo [22], exposure time: 4 dpf	–	–	–	–	–	–	–	–	–	–	–	–	–	–	20.4	–	–	–
Danio rerio embryo [24], 5 µM	–	–	–	–	–	–	–	–	–	–	–	–	–	–	–	–	–	10.3
Danio rerio embryo [24], 9.9 µM	–	–	–	–	–	–	–	–	–	–	–	–	–	–	–	–	–	9.83
Danio rerio embryo [24], 13.3 µM	–	–	–	–	–	–	–	–	–	–	–	–	–	–	–	–	–	9.46
Danio rerio embryo [24], 19.9 µM	–	–	–	–	–	–	–	–	–	–	–	–	–	–	–	–	–	9.25
Danio rerio embryo [24], 26.5 µM	–	–	–	–	–	–	–	–	–	–	–	–	–	–	–	–	–	1.62
Danio rerio embryo [24], 53 µM	–	–	–	–	–	–	–	–	–	–	–	–	–	–	–	–	–	0
Danio rerio embryo [24], 79.6 µM	–	–	–	–	–	–	–	–	–	–	–	–	–	–	–	–	–	0
Danio rerio embryo [25], exposure time: 2 dpf	–	–	–	–	–	–	–	–	–	–	47.2	–	–	–	–	–	–	–
Danio rerio embryo [25], exposure time: 4 dpf	–	–	–	–	–	–	–	–	–	–	6.81	–	–	–	–	–	–	–
Danio rerio embryo [28], exposure time: 2 dpf	13.8	–	–	–	–	–	–	–	–	–	–	–	–	–	–	–	–	–
Danio rerio embryo [28], exposure time: 4 dpf	8.34	–	–	–	–	–	–	–	–	–	–	–	–	–	–	–	–	–
Danio rerio embryo [30], exposure time: 2 dpf	–	–	–	–	–	15.7	–	–	–	–	–	–	–	–	–	–	–	–
Danio rerio embryo [30], exposure time: 4 dpf	–	–	–	–	–	9.17	–	–	–	–	–	–	–	–	–	–	–	–

Conditions	EC10 Bladder size Decrease [µM]	EC10 Eye-jaw distance Decrease [µM]	EC10 LMR dark [µM]	EC10 Otolith-eye distance Decrease [µM]	EC20 Bladder size Decrease [µM]	EC20 Eye-jaw distance Decrease [µM]	EC20 Head trunk angle Decrease [µM]	EC20 LMR dark [µM]	EC20 Otolith-eye distance Decrease [µM]	EC50 Bladder size Decrease [µM]	EC50 Eye-jaw distance Decrease [µM]	EC50 LMR dark [µM]	EC50 Otolith-eye distance Decrease [µM]
Danio rerio embryo [2]	–	–	–	19.6	–	–	–	–	–	–	–	–	–
Danio rerio embryo [4]	–	–	–	–	–	–	16	–	–	–	–	–	–
Danio rerio embryo [9]	–	–	–	–	–	10.5	–	–	–	–	–	–	–
Danio rerio embryo [11]	–	–	–	–	–	–	–	–	–	–	13.1	–	–
Danio rerio embryo [13]	6.28	–	–	–	–	–	–	–	–	–	–	–	–
Danio rerio embryo [14]	–	–	–	–	–	–	–	–	19.7	–	–	–	–
Danio rerio embryo [16]	–	–	–	–	–	–	–	–	–	–	–	4.83	–
Danio rerio embryo [17]	–	–	–	–	–	–	–	–	–	–	–	–	19.8
Danio rerio embryo [21]	–	–	–	–	–	–	–	3.68	–	–	–	–	–
Danio rerio embryo [23]	–	9.21	–	–	–	–	–	–	–	–	–	–	–
Danio rerio embryo [26]	–	–	3.21	–	–	–	–	–	–	–	–	–	–
Danio rerio embryo [27]	–	–	–	–	7.52	–	–	–	–	–	–	–	–
Danio rerio embryo [29]	–	–	–	–	–	–	–	–	–	10.3	–	–	–
